In patent US20200360381A1, “COMPOUNDS FOR TREATING DENGUE VIRUS INFECTION AND OTHER VIRAL INFECTIONS” (priority 2017, published 2020):
“And” between values parts separate entries of the source, which are not always exact repeats. Equal entries are not always repeated. Where two headings read alike, the source gives them in different places.

Key:
DENV2 = assay: Antiviral activity (viral infectivity) assay, single-cycle viral yield; type: cell-based, Dengue virus 2; details: for IC90: Dengue virus
DENV2 sE2 [1] = molecular target: T1, DENV2 sE2 (Dengue virus type 2, UniProt P14340); assay: biochemical; type: binding, Dengue virus 2; details: for IC50: IC50 (AlphaScreen)
DENV2 sE2 [2] = molecular target: T1, DENV2 sE2; assay: biochemical; type: binding, Dengue virus 2
[3] = Cytotoxicity assay (CellTiter-Glo); details: hamster
Protocol: (§1) BHK21 cells (MEM with 2% FBS) were incubated with varying concentrations of inhibitor in a 96-well white plate for 24 hours at 37° C. and 5% CO2. CellTiter-Glo (Promega) solution was used to measure viability following the manufacturer's instructions. Luminescence was measured using a Biotek Synergy plate reader. […] The maximum concentration tested was 100 μM.

[4] = Mouse microsomal stability; details: mouse microsomes
VSV-eGFP = assay: microbe, parasite or virus in culture; type: cell-based, vesicular stomatitis virus; details: for inhibition at 5 µM / inhibition at 10 µM: Vesicular stomatitis virus, 6 h; for inhibition at 5 µM: read-out: VSV 5 μM; for inhibition at 10 µM: read-out: VSV 10 μM
AmpC β-lactamase = AmpC β-lactamase (Escherichia coli, UniProt P00811); assay: biochemical
[5] = Dynamic light scattering particle size; type: physicochemical; details: DLS, 40 μM compound; for Particle size (with Tween 20): with detergent; for Particle size (no Tween): without detergent
DENV1, 2, 3, 4; ZIKV = assay: Plaque reduction assay (PRNT); type: cell-based; details: Zika virus, DENV1, read-out: EC50 (PRNT)
Protocol: DENV1, 2, 3, 4 were tested on BHK-21 cells, and ZIKV was tested on Vero cells. Virus inocula were diluted in EBSS to 2500 pfu/ml as the final concentration, and were pre-incubated with different concentrations of small molecule inhibitors (2% DMSO vol/vol final concentration) for 45 min at 37° C., 5% CO2. The mixture (200 μl, 500 pfu of virus) was then added to cells for 1 hour (37° C., 5% CO2) to allow infection, after which the inoculum was removed, and the cells were washed with 1×PBS to remove unbound virus and compound. Cells were overlaid with carboxylmethylcellulose and incubated at 37° C., 5% CO2 to allow the formation of plaques (4 days for DENV1, 2, 3, 4 and 2-3 days for ZIKV). The cells were fixed and plaques visualized by staining of the cell monolayers with crystal violet Empirical analysis was performed to determine the PRNT50 (EC50 (PRNT)) value, defined as the inhibitor concentration needed to reduce plaque formation by 50%.

in vitro = details: hamster
Protocol: as §1

[6] = DENV2, concentration that reduces single-cycle viral yield by 10-fold, read-out: IC90 (DENV2 infectivity)
[7] = concentration that inhibits 50% luminescence signal in the AlphaScreen competition assay, Table 1
[8] = T1/2 (mouse microsome), mouse microsomal stability
[9] = IC50 (AmpC, Triton), with detergent (0.01% Triton X-100)
[10] = DENV2, read-out: IC90 versus DENV2

Chain of AmpC β-lactamase (P00811 20-377): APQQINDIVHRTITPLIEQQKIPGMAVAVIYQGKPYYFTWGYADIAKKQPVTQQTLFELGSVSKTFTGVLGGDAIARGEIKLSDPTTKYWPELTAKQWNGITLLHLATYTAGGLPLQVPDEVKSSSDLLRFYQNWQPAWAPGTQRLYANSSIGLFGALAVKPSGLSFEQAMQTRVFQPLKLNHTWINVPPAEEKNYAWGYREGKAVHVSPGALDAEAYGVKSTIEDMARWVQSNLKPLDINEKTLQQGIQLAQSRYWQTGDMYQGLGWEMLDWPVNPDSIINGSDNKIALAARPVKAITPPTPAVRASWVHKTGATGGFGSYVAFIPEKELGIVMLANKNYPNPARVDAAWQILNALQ

Compound	Kd (DENV2 sE2 [2])	IC90 (DENV2; [6])	IC50 (DENV2 sE2 [1]; [7])	CC50 at 24 h [3]	half-life [4, 8]	inhibition at 5 µM (VSV-eGFP)	inhibition at 10 µM (VSV-eGFP)	Particle size (with Tween 20) [5]	Particle size (no Tween) [5]	further results
Cc1nc2c(C(=O)NCc3cccnc3)cnn2c(O)c1Cc1ccc(F)cc1 [JBJ-16-105]										(Anti-DENV2)% at 3 μM (DENV2; 3 μM): 20%; (Anti-DENV2)% at 10 μM (DENV2; 10 μM): 86%; IC50 (DENV2 sE2 [1]; Table 2): > 10 µM
COc1ccc(Nc2cc(C)c3cc(NC(=O)c4ccc(N(C)C)cc4)ccc3n2)cc1 [Compound C066-4182]	2200 nM	17000 ± 4500 nM	1.4 ± 1.1 µM	> 50 µM	5.3 min	5%	22%			
Cc1nc2c(C(=O)NC3CCN(C)CC3)cnn2c(O)c1Cc1ccc(F)cc1 [JBJ-16-103]										IC50 (AlphaScreen) (DENV2 sE2 [1]; Table 2): No competition
CN(CC(=O)N(Cc1ccc(C2CCCCC2)cc1)c1ccc(C(=O)O)cc1)S(=O)(=O)c1c(F)c(F)c(F)c(F)c1F [Compound S7337]	1300 nM	2700 ± 1000 nM	4.1 ± 1.8 µM	12.7 µM	3.2 min			8.2 (40 μM) nm	144 (40 μM) nm	IC50 (AmpC β-lactamase; IC50 (AmpC), without detergent): > 100 µM; IC50 (AmpC β-lactamase; [9]): > 100 µM; IC90 (DENV2; [10]): 3000 nM; inhibition of VSV-eGFP in counter screen (VSV-eGFP): less potency
Cc1nc2c(C(=O)NCC3CCCN(C)C3)cnn2c(O)c1Cc1ccc(F)cc1 (stereo not drawn) [JBJ-16-104]										IC50 (AlphaScreen) (DENV2 sE2 [1]; Table 2): No competition
CCCc1nn2c(=O)cc(CSc3nc(-c4ccc(C)cc4)nc4cc(=O)[nH]n34)nc2s1 [Compound G199-0398]		8800 ± 200 nM	7 ± 3 µM	68 µM	70.6 min	33%	59%	7.2 (40 μM) nm	268 (40 μM) nm	half-life ([4]; stability half-life (text, printed Ti)): ~70 min; inhibition of VSV-eGFP in counter screen (VSV-eGFP): strong inhibition efficiency
Oc1ccc(C2NCCc3c2[nH]c2ccc(Cl)cc32)cc1O (stereo not drawn) [Compound C200-9144]	1200 nM	1200 ± 400 nM	2.6 ± 1.3 µM	> 50 µM	55.6 min	76%	77%	8.3 (40 μM) nm	1443 (40 μM) nm	IC90 (DENV2; [10]): 3000 nM; inhibition of VSV-eGFP in counter screen (VSV-eGFP): less potency
CCOc1ccc(CCNC(=O)c2cnn3c(O)cc(C4CCN(C(=O)OC(C)(C)C)CC4)nc23)cc1 [Compound C429-0385]				> 100 µM						EC50 (DENV1, 2, 3, 4; ZIKV): 600 nM; IC90 (DENV2; DENV2, read-out: IC90 (DENV2 infectivity)): ~3000 nM; IC50 (DENV2 sE2 [1]; Table 3): 7.6 µM and 5.3 µM
Cc1nc2c(C(=O)NCc3ccc4c(c3)OCO4)cnn2c(O)c1Cc1ccccc1F [Compound C218-0288]										IC50 (DENV2 sE2 [1]; Table 3): 1.9 µM
NC(=O)c1cccc(-c2cc(Nc3ccc(OC(F)(F)F)cc3)ncn2)c1 [GNF2, reference compound]										competition of AlphaScreen signal (DENV2 sE2 [1]; GNF2-biotin on donor beads, His6-tagged DENV2 sE2 on acceptor beads): competed away in a dose-dependent fashion
COC(=O)c1ccc(Cl)cc1NC(=O)CSc1ncc(S(=O)(=O)c2ccc(Br)cc2)c(=O)[nH]1 [Compound C200-5340]	7100 nM	7200 ± 3500 nM	3 ± 1.1 µM	> 50 µM	4.2 min	20%	51%	7.5 (40 μM) nm	966 (40 μM) nm	inhibition of VSV-eGFP in counter screen (VSV-eGFP): less potency
Cc1cc(C(C#N)c2ccc(Cl)cc2)c(Cl)cc1NC(=O)c1cc(I)cc(I)c1O (stereo not drawn) [Compound S4105]	900 nM	800 ± 300 nM	0.6 ± 0.2 µM		> 120 min			13.1 (40 μM) nm	82 (40 μM) nm	IC50 (AmpC β-lactamase; IC50 (AmpC), without detergent): 19.5 µM; IC50 (AmpC β-lactamase; [9]): > 100 µM; IC90 (DENV2; [10]): 3000 nM; CC50 at 24 h (in vitro): 50 µM; VSV 5 μM (VSV-eGFP): 60%; VSV 10 μM (VSV-eGFP): 64%
Cc1ccc(CCNC(=O)c2cnn3c(O)c(Cc4cc(C)ccc4C)c(C)nc23)cc1 [Compound K786-9739]	1300 nM	3100 ± 100 nM	3 ± 1.7 µM	81 µM	14.9 min	35%	63%	7.1 (40 μM) nm	628 (40 μM) nm	IC90 (DENV2; [10]): 3000 nM
COc1cc(C(=O)NS(=O)(=O)c2ccccc2C)ccc1Cc1cn(C)c2ccc(NC(=O)OC3CCCC3)cc12 [Compound S1633]	5200 nM	7000 ± 2800 nM	3.1 ± 1 µM		37.7 min	12%	40%	9.2 (40 μM) nm	823 (40 μM) nm	IC50 (AmpC β-lactamase; IC50 (AmpC), without detergent): 36.6 µM; IC50 (AmpC β-lactamase; [9]): > 100 µM; CC50 at 24 h (in vitro): 50 µM
